According to patent US20070270350A1, “Methods and Compositions for the Prevention and Treatment of Inflammatory Diseases or Conditions” (MUSC FOUNDATION FOR RESEARCH DEVELOPMENT, priority 2003, published 2007):

How the values were obtained:
[1] = test system: KA-treated rats; assay: KA-induced seizure model (epilepsy model), rat hippocampus; format: in vivo; details: 3 days after KA
Description: FIG. 45. Experimental design for the use of statins as a therapeutic for kinic acid induced seizures (epilepsy model).
FIG. 46. […] The rats were orally pre-treated (7 days before) with atorvastatin (LP; 10 mg/kg) prior to KA (10 mg/kg, i.p.). At 3 days after KA injection, neuronal cell death in hippocampus was examined using cresyl violet stain.
FIG. 47. […] The rats were orally pre-treated (7 days before) with atorvastatin (LP; 10 mg/kg) prior to KA (10 mg/kg, i.p.). At 3 days after KA injection, infiltration of macrophages in the CA1 and CA3 regions of the hippocampus was examined using immunofluorescent labeling against for ED-1, as a marker of monocytes.
The rats were orally pre-treated (7 days before) with atorvastatin (LP; 10 mg/kg) prior to KA (10 mg/kg, i.p.). At 3 days after KA injection, neuronal cell death in the CA1 (A) and CA3 (B) regions of the hippocampus was examined using TUNNEL assay.
FIG. 49. […] The rats were orally pre-treated (7 days before) with lovastatin (Lov; 10 mg/kg) prior to KA (10 mg/kg, i.p.). At 3 days after KA injection, neuronal cell death in hippocampus was examined using cresyl violet stain.
(§1) FIG. 50A-C. […] The rats were orally pre-treated (7 days before) with atorvastatin (LP; 10 mg/kg) prior to KA (10 mg/kg, i.p.). At 3 days after KA injection, the expression of inflammatory genes (TNF-α, IL-1β, and iNOS) in hippocampus using real time PCR. The expression of each gene was normalized with GAPDH expression.
as §1, with “51A-C.” for “50A-C.”, “lovastatin (Lov;” for “atorvastatin (LP;”
Seizure index: stage 1, facial clonus; stage 2, nodding; stage 3, forelimb clonus; stage 4, forelimb clonus with rearing; stage 5, rearing, jumping, and falling. The rats were orally pre-treated (7 days before) with lovastatin or atorvastatin (Lov or LP; 10 mg/kg) prior to KA (10 mg/kg, i.p.).

[2] = test system: iNOS; assay: LPS-induced iNOS expression and iNOS promoter activity in primary astrocytes (AICAR); format: cell-based, rat; details: GGPP 10 μM, FPP 10 μM, mevalonate 10 mM with AICAR 1 mM
Description: Immunoblot Analysis: Cells were harvested in ice-cold lysis buffer (50 mM Tris-HCl, pH 7.4, containing 50 mM NaCl, 1 mM EDTA, 0.5 mM EGTA, 10% glycerol and protease inhibitor cocktail) and protein was estimated using Bradford reagent (Bio-Rad, USA). Fifty microgram of total protein/lane was separated by SDS-PAGE and blotted to nitrocellulose (Amersham Pharmacia Biotech). Blots were blocked for 1 h in 5% nonfat dry milk-TBS-0.1% Tween 20 and incubated overnight with primary antibody (1:1000) in 5% BSA-TBS-0.1% Tween 20 at 4° C. This was followed by incubation of 1 h with appropriate secondary peroxidase conjugated antibody (1:10,000, Sigma). Immunoreactivity was detected using the enhanced chemiluminescence detection method according to the manufacturer's instructions (Amersham Pharmacia Biotech) and subsequent exposure of the membrane to X-ray film. Antisense experiments: To decrease the levels of endogenous AMPK, astrocytes were pretreated for 48 h with 25 μm (of phosphothiorated antisense (AS) oligonucleotide ([NT]) directly against both the ? α1 and α2 ? subunits of AMPK (Culmsee et al., 2001) ? ? ? missense (MS) oligonucleotide ([NT]) was used in control cultures. Oligonucleotides were transfected with OligofectamineTM reagent as per manufacturer's instructions. Northern blot, gene array analysis and RT-PCR for cytokines expression: Total RNA was extracted with Trizol (Gibco) according to the manufacturer's protocol. Northern blot for iNOS was performed with 15 μg of RNA per reaction as described previously (Pahan et al., 1997). β-actin was used as control for RNA loading. Gene expression array for inflammatory cytokines (TNFα, IL-1β, IL-6 and IFN-γ) was used according to the manufacturer's protocol (Superarray). Signal quantitation was determined using imaging densitomter (Bio-Rad Lab, Hercules, Calif.). For RT-PCR, RNA was isolated from treated rat brain cerebral cortex by extracting in Trizol as above. cDNA was prepared from 5 μg of total RNA using poly dT as a primer and Moloney murine leukemia virus reverse transcriptase (Promega) as per manufacturer's instructions. 2 μl of cDNA was used to amplify the following products [given as product name, expected size, and forward (F) and reverse (R) primers used]: iNOS, 730 bp. ([NT]-1β, 623 bp. ([…]-α, 473 bp. ([…], 528 bp. […] Transcriptional assays: Primary astrocytes or microglial cell line (BV2) were transiently transfected with NF- ? B-or iNOS-luciferase reporter gene with ? -galactosidase in the presence or absence of dominant negative AMPKα2 or HA-IKK ? by lipofectamine-2000 (astrocytes) and lipofectamine-Plus (BV2, Invitrogen) according to the manufacturer instructions. pcDNA3 was used to normalize all groups to equal amounts of DNA. Luciferase activity was determined using a luciferase kit (Promega).

[3] = cited from earlier work
[4] = 10 mg/kg orally, 7 days before KA

In the case of `CC(C)c1c(C(=O)Nc2ccccc2)c(-c2ccccc2)c(-c2ccc(F)cc2)n1CC[C@@H](O)C[C@@H](O)CC(=O)O` [Atorvastatin, atorvastatin], the “apoptosis induced by KA in hippocampus (TUNNEL assay, CA1 and CA3)” value [1, 4] is reported as “inhibited”, the “infiltration of macrophages induced by KA in hippocampus (ED-1)” value [1, 4] is reported as “inhibited” and the “KA-induced neuronal cell death in hippocampus (cresyl violet stain)” value ([1]; statin 10 mg/kg orally, 7 days before KA 10 mg/kg i.p.) is reported as “inhibited”. The “expression of inflammatory genes (TNF-α, IL-1β, and iNOS) induced by KA in hippocampus (real time PCR)” value ([1]; statin 10 mg/kg orally, 7 days before KA) was “inhibited”.

For `CC(C)=CCC/C(C)=C/CC/C(C)=C/COP(=O)(O)OP(=O)(O)O` [FPP, farnesyl pyrophosphate], the “effect on inhibitory effect of AICAR on LPS induced iNOS-luciferase activity” value (“effect on inhibitory effect of AICAR” below) [2] was “did not reverse”.

In the case of `CC(C)=CCC/C(C)=C/CC/C(C)=C/CC/C(C)=C/COP(=O)(O)OP(=O)(O)O` [GGPP, geranylgeranyl pyrophosphate], the “effect on inhibitory effect of AICAR” value [2] is reported as “did not reverse”.

In the case of `CCCCN1CC(O)C(O)C(O)C1CO` [Miglustat, 1,5-(butylimino)-1,5-dideoxy-D-glucitol], the solubility in water [3] is listed as “soluble”.

In the case of `CC(O)(CCO)CC(=O)O` (centres unmarked) [mevalonate], the “effect on inhibitory effect of AICAR” value [2] is reported as “did not reverse”.
